Data: patent publication US12358921B2, “Antiviral heterocyclic compounds” (priority 2022, dated 2025)
pEC50: −log10 of the molar value.

How the values were obtained:
Format in all cases: cell-based
[1] = system: HUMAN RSV-A (“LONG” STRAIN); assay: RSV-A assay (CPE, ATPlite) in Hep-2 cells; conditions: human respiratory syncytial virus, 120 h, MOI 0.1, 5-day incubation
Outline: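 Hep-2 cells (8,000/well) given 2-fold serial compound dilutions in duplicate, then infected with RSV-A Long strain at MOI 0.1. After 5 days, virus-induced cytopathic effect quantified as cellular ATP by ATPlite luminescence, against virus-only and uninfected controls; EC50 reported in ranges.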

hMPV A2 TN/94-49 [2] = assay: HMPV antiviral assay Method 2 (LLC-MK2 cells with CP-100-356, ATP-Lite); conditions: hMPV A2 TN/94-49, LLC-MK2 cells, 4 μM CP-100-356, Method 2
Outline: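 LLC-MK2 cells infected in suspension with hMPV A2 TN/94-49 at MOI 0.16, in serum-free OptiMEM with final 2 μg/mL TPCK-trypsin and 2 μM CP-100-356 (P-gp inhibitor). Compounds tested in duplicate, top 200 nM, 2.5-fold, 10 points; 7 days at 37 °C. ATP-Lite cell health normalised to controls; EC50 by four-parameter fit.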

hMPV A2 TN/94-49 [3] = assay: HMPV antiviral assay Method 1 (LLC-MK2 cells, ATP-Lite); conditions: hMPV A2 TN/94-49, LLC-MK2 cells
Outline: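 LLC-MK2 cells infected in suspension with hMPV A2 TN/94-49 at MOI 0.005, 5,000 cells/well, in serum-free OptiMEM with 2 μg/mL TPCK-trypsin (final) and CaCl2; compounds in duplicate, 10 points, 2 μM top, 2.5-fold dilutions. After 7 days at 37 °C, cell health by ATP-Lite luminescence; EC50 by four-parameter fit.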

SMILES	pEC50 [1]	pEC50 (hMPV A2 TN/94-49 [2])	pEC50 (hMPV A2 TN/94-49 [3])
COc1cc(C(=O)NC[C@@](O)(c2cccc(F)c2)c2cc3c(c(-c4cc(Cl)c(F)cc4F)n2)OC[C@]3(C)C(N)=O)cc2cn(C3CC3)nc12 [Example 132]	> 6.70	> 6.70	> 6.30
COc1cc(C(=O)NC[C@@](O)(c2cccc(F)c2)c2cc3c(c(-c4cccc(Cl)c4Cl)n2)OC[C@]3(C)C(N)=O)cc2oc(C)nc12 [Example 293]	> 6.70	> 6.70	> 6.30
COc1cc(C(=O)NC[C@@](O)(c2ccccc2)c2cc3c(c(-c4cccc(Cl)c4Cl)n2)OC[C@]3(C)C(N)=O)cc2cn(C3(F)CC3)nc12 [Example 262]	> 6.70	> 6.70	> 6.30
COc1cc(C(=O)NC[C@@](O)(c2cccc(F)c2)c2cc3c(c(-c4cc(Cl)c(F)cc4F)n2)OC[C@]3(C)C(N)=O)cc2cc(C3CC3)nn12 [Example 133]	> 6.70	> 6.70	> 6.30
COc1ccc([C@](O)(CNC(=O)c2cc(OC)c3nn(C4(F)CC4)cc3c2)c2cc3c(c(-c4cc(Cl)c(F)cc4F)n2)OC[C@]3(C)C(N)=O)cc1 [Example 166]	> 6.70	> 6.70	> 6.30
COc1ccc([C@](O)(CNC(=O)c2cc(OC)c3nn(C4CC4)cc3c2)c2cc3c(c(-c4cc(Cl)c(F)cc4F)n2)OC[C@]3(C)C(N)=O)cc1 [Example 165]	> 6.70	> 6.70	> 6.30
COc1cc(C(=O)NC[C@@](O)(c2ccccc2)c2cc3c(c(-c4cc(Cl)ccc4F)n2)OC[C@]3(C)C(N)=O)cc2cn(C3CC3)nc12 [Example 144]	> 6.70	> 6.70	> 6.30
COc1cc(C(=O)NC[C@](O)(c2cc3c(c(-c4cc(Cl)c(F)cc4F)n2)OC[C@]3(C)C(N)=O)c2nccs2)cc2cn(C3CC3)nc12 [Example 475]	> 6.70	> 6.70	> 6.30
C[C@]1(C(N)=O)COc2c1cc([C@@](O)(CNC(=O)c1ccc3nc(C4CC4)oc3c1)c1ccccc1)nc2-c1cc(Cl)c(F)cc1F [Example 88]	> 6.70	> 6.70	> 6.30
COc1cc(C(=O)NC[C@](O)(c2cc3c(c(-c4cc(Cl)c(F)cc4F)n2)OC[C@]3(C)C(N)=O)c2cccs2)cc2cn(C3CC3)nc12 [Example 474]	> 6.70	> 6.70	> 6.30
COc1cc(C(=O)NC[C@](O)(c2cc3c(c(-c4ccc(F)c(F)c4C)n2)OC[C@]3(C)C(N)=O)C2CC2)cc2cn(C3CC3)nc12 [Example 70]	> 6.70	> 6.70	> 6.30
COc1cc(C(=O)NC[C@@](O)(c2ccccc2)c2cc3c(c(-c4cc(Cl)c(F)cc4F)n2)OC[C@]3(C)C(N)=O)cc2cc(C3CC3)nnc12 [Example 90]	> 6.70	> 6.70	> 6.30
COc1cc(C(=O)NC[C@@](O)(c2ccccc2)c2cc3c(c(-c4cc(Cl)c(F)cc4F)n2)OC[C@]3(C)C(N)=O)cc2sc(N)nc12 [Example 157]	> 6.70	> 6.70	> 6.30
COc1cc(C(=O)NC[C@@](O)(c2ccccc2)c2cc3c(c(-c4cc(F)c(F)cc4F)n2)OC[C@]3(C)C(N)=O)cc2cn(C(F)F)nc12 [Example 172]	> 6.70	> 6.70	> 6.30
COc1cc(C(=O)NC[C@@](O)(c2cccc(F)c2)c2cc3c(c(-c4cc(C(F)(F)F)c(F)cc4F)n2)OC[C@]3(C)C(N)=O)cc2oc(C3CC3)nc12 [Example 297]	> 6.70	> 6.70	> 6.30
COc1cc(C(=O)NC[C@@](O)(c2ccc(F)cc2)c2cc3c(c(-c4ccc(F)c(Cl)c4Cl)n2)OC[C@]3(C)C(N)=O)cc2cn(C3(F)CC3)nc12 [Example 43]	> 6.70	> 6.70	> 6.30

SMILES	pEC50 [1]	pEC50 (hMPV A2 TN/94-49 [2])	pEC50 (hMPV A2 TN/94-49 [3])
C[C@]1(C(N)=O)COc2c1cc([C@@](O)(CNC(=O)c1cc(OC3CC3)c3nc(C4CC4)sc3c1)C1CC1)nc2-c1cc(Cl)c(F)cc1F [Example 3]	> 6.70	> 6.70	> 6.30
COc1cc(C(=O)NC[C@@](O)(c2ccc(F)cc2)c2cc3c(c(-c4cc(Cl)c(F)cc4F)n2)OC[C@]3(C)C(N)=O)cc2cn(C3(F)CC3)nc12 [Example 14]	> 6.70	> 6.70	> 6.30
COc1cc(C(=O)NC[C@@](O)(c2cccnc2)c2cc3c(c(-c4cc(Cl)c(F)cc4F)n2)OC[C@]3(C)C(N)=O)cc2cn(C3CC3)nc12 [Example 131]	> 6.70	> 6.70	> 6.30
COc1cc(C(=O)NC[C@](O)(c2cc3c(c(-c4cc(F)c(F)cc4C)n2)OC[C@]3(C)C(N)=O)C2CC2)cc2cn(C3CC3)nc12 [Example 50]	> 6.70	> 6.70	< 6.30
COc1cc(C(=O)NC[C@@](O)(c2ccccc2)c2cc3c(c(-c4ccc(F)c(Cl)c4Cl)n2)OC[C@]3(C)C(N)=O)cc2cn(C(F)F)nc12 [Example 258]	> 6.70	> 6.70	> 6.30
COc1cc(C(=O)NC[C@@](O)(c2ccccc2)c2cc3c(c(-c4cc(C(F)(F)F)ccc4F)n2)OC[C@]3(C)C(N)=O)cc2cn(C3CC3)nc12 [Example 147]	> 6.70	> 6.70	> 6.30
COc1cc(C(=O)NC[C@@](O)(c2ccccc2)c2cc3c(c(-c4ccc5c(c4)OC(F)(F)O5)n2)OC[C@]3(C)C(N)=O)cc2cn(C3(F)CC3)nc12 [Example 19]	> 6.70	> 6.70	> 6.30
COc1cc(C(=O)NC[C@@](O)(c2ccccc2)c2cc3c(c(-c4ccc(F)c(Cl)c4Cl)n2)OC[C@]3(C)C(N)=O)cc2cc(Cl)cnc12 [Example 294]	> 6.70	> 6.70	> 6.30
COc1cc(C(=O)NC[C@](O)(c2cc3c(c(-c4cc(F)c(F)cc4F)n2)OC[C@]3(C)C(N)=O)C2CC2)cc2cc(C)c(F)nc12 [Example 21]	> 6.70	> 6.70	> 6.30
COc1cccc([C@](O)(CNC(=O)c2cc(OC)c3nn(C4CC4)cc3c2)c2cc3c(c(-c4cc(Cl)c(F)cc4F)n2)OC[C@]3(C)C(N)=O)c1 [Example 160]	> 6.70	> 6.70	> 6.30
Cc1cnc2c(OC3CC3)cc(C(=O)NC[C@@](O)(c3ccccc3)c3cc4c(c(-c5cc(Cl)c(F)cc5F)n3)OC[C@]4(C)C(N)=O)cc2c1 [Example 182]	> 6.70	> 6.70	> 6.30
COc1cc(C(=O)NC[C@@](O)(c2ccccc2)c2cc3c(c(-c4cc(Cl)c(F)cc4F)n2)OC[C@]3(C)C(N)=O)cc2cc(C)nnc12 [Example 89]	> 6.70	> 6.70	> 6.30
COc1cc(C(=O)NC[C@](O)(c2cc3c(c(-c4ccc(F)c(C)c4Cl)n2)OC[C@]3(C)C(N)=O)C2CC2)cc2cn(C3CC3)nc12 [Example 69]	> 6.70	> 6.70	> 6.30
COc1cc(C(=O)NC[C@@](O)(c2cccc(F)c2)c2cc3c(c(-c4ccc5c(c4Cl)OC(F)(F)O5)n2)OC[C@]3(C)C(N)=O)cc2cn(C(F)F)nc12 [Example 276]	> 6.70	> 6.70	> 6.30
COc1cc(C(=O)NC[C@@](O)(c2ccccn2)c2cc3c(c(-c4cc(Cl)c(F)cc4F)n2)OC[C@]3(C)C(N)=O)cc2cn(C3CC3)nc12 [Example 463]	> 6.70	> 6.70	> 6.30
